In patent US20140371137A1, “PREPARATION OF PNA-6-AMINOGLUCOSAMINE CONJUGATES AS ANTIVIRAL AGENTS” (priority 2013, published 2014):

Experiments:
HCV 5'NTR RNA = assay: Gel electrophoretic mobility shift analysis (EMSA) of PNA-glucosamine conjugate binding to HCV 5'NTR RNA transcript; settings: for gel retardation of the labeled RNA: 20 nM HCV 5'NTR RNA transcript
Protocol: FIG. 10. Stoichiometry of binding of PNA-glucosamine conjugate to its target sequence: (A) The PCR product corresponding to domains III and IV of 5′NTR and the 36 nucleotide of the N-terminal coding sequence of the HCV core were transcribed to generate 244-base runoff transcripts using a T7 transcription kit from Roche Applied Sciences. The 20 nM of internally 32P labeled HCV 5′NTR RNA transcript was incubated either with various concentrations of PNA-glucosamine conjugate complementary to sequence 352-338 in domain IV of the 5′NTR or (B) scramble PNA-glucosamine conjugate. Binding of the PNA-glucosamine conjugate (PNAHCV 352-338) to its target sequence was evaluated by gel electrophoretic mobility shift analysis (EMSA). Lane 1, control without PNA conjugate; lane 2, 10 nM of PNA conjugate; lane 3, 15 nM of PNA conjugate; lane 4, 20 nM of conjugate, lane 5, 25 nM of conjugate.
Target specificity of antisense PNA: Using a PNA-glucosamine conjugate targeted to the translation initiation window (352-338: […]) in Domain IV of HCV 5′NTR, we have shown that it has great specificity for the targeted sequence. The PNA-glucosamine conjugate ([…]) forms a tight complex with HCV RNA at a stoichiometric ratio (FIG. 10).

[1] = system: HCV subgenomic replicons in MH14 cells; assay: Inhibition of viral translation and replication in MH14 cells carrying HCV subgenomic replicons; type: cell-based

PNAHCV353-338: PNA-glucosamine conjugate targeted to the translation initiation window (352-338: TTCGTGCTCATGGTG) in Domain IV of HCV 5'NTR (all peptide nucleic acid (PNA); glucosamine conjugate attached)
gel retardation of the labeled RNA (HCV 5'NTR RNA; 1:0.5 ratio of target RNA to PNA conjugate): 50%
gel retardation of the labeled RNA (HCV 5'NTR RNA; 1:0.75 ratio of target RNA to PNA conjugate): 75%
gel shift of the target RNA (HCV 5'NTR RNA; stoichiometric ratios of 1:1 or greater): complete gel shift
HCV translation (viral protein NS5B, Western blot) ([1]; 72 h, 50, 100 and 200 nM conjugate (FIG. 13A)): efficiently blocked at a subnanomolar concentration
HCV replication (viral RNA, RT PCR) ([1]; 72 h, 50, 100 and 200 nM conjugate (FIG. 13B)): efficiently blocked at a subnanomolar concentration
